These results are taken from PubChem BioAssay (NCI).

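Assay format: 96-well plates, 48-hour exposure. GI50 is the concentration that inhibits growth by half. Definition used: TGI = concentration required for complete inhibition of growth.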 Some results are limits rather than exact numbers.

Some test systems named below: 786-0 renal; A549 NSCLC; ACHN renal; CCRF-CEM leukemia; HCC-2998 colon; HT29 colon; M14 melanoma; RXF 393 renal; SN12C renal; T-47D breast.
Holding throughout (assay): DTP human tumour cell line panel, 48 h

With `O=C(c1ccc(Nc2nccc(NCCCCNc3ccnc4cc(Cl)ccc34)n2)cc1)N1CCCCC1`, the GI50 (in general, the concentration giving 50% growth inhibition) in the test on 786-0 renal is 1.46 µM; with A549 NSCLC, 1.3 µM; in the test on ACHN renal, 3.32 µM; in the test on CCRF-CEM leukemia, 1.48 µM; in the test on HCC-2998 colon, 1.91 µM; with HT29 colon, 1.31 µM. For the same compound, the GI50 in the test with M14 melanoma was 1.71 µM; in the test on RXF 393 renal, 1.33 µM; in the test with SN12C renal, 2.38 µM; in the test with T-47D breast, 2.08 µM. Also, the TGI (as a rule, the concentration at which net growth stops) was 2.82 µM in the test on 786-0 renal; 11.9 µM in the test with A549 NSCLC; 11.3 µM with ACHN renal; greater than 100 µM in the test on CCRF-CEM leukemia; 5.42 µM in the test with HCC-2998 colon; 6.57 µM in the test with HT29 colon. The TGI with M14 melanoma was 3.43 µM; in the test on RXF 393 renal, 2.82 µM; in the test on SN12C renal it was 9.29 µM; with T-47D breast, 5.6 µM.

With `OCC1OC(n2cnc3c(NCc4ccco4)ncnc32)C(O)C1O` (stereo unspecified), the GI50 was 2.16 µM in the test with 786-0 renal; 2.6 µM with A549 NSCLC; 0.542 µM in the test on ACHN renal; 0.43 µM in the test on CCRF-CEM leukemia; 3.85 µM in the test on HCC-2998 colon; 2.1 µM in the test with HT29 colon. In addition, the GI50 in the test on M14 melanoma is 2.44 µM; in the test with RXF 393 renal, 2.21 µM; in the test on SN12C renal it was 0.386 µM; with T-47D breast, 2.43 µM. Besides, the TGI with 786-0 renal was 10.3 µM; in the test with A549 NSCLC, 36.9 µM; in the test with ACHN renal it was greater than 100 µM; with CCRF-CEM leukemia, 5.4 µM; with HCC-2998 colon, 40 µM; in the test with HT29 colon, greater than 38 µM. Moreover, the concentration for total growth inhibition (TGI) with M14 melanoma was 17.2 µM; in the test on RXF 393 renal, 15 µM; with SN12C renal, greater than 100 µM; with T-47D breast, 11.3 µM.

For `C[C@@H](Oc1cc(-c2cnn(C3CCNCC3)c2)cnc1N)c1c(Cl)cc(F)cc1Cl`, the GI50 in the test on 786-0 renal is 2.13 µM; with A549 NSCLC, 1.14 µM; in the test on ACHN renal, 2.61 µM; in the test on CCRF-CEM leukemia, 0.504 µM; in the test with HCC-2998 colon, 2.42 µM; in the test with HT29 colon, 1.11 µM. Moreover, the GI50 in the test with M14 melanoma is 1.54 µM; with RXF 393 renal, 1.5 µM; in the test with SN12C renal, 1.95 µM; in the test on T-47D breast it was 1.74 µM. For the same compound, the TGI came to 4.84 µM in the test with 786-0 renal; 11.3 µM in the test on A549 NSCLC; 12 µM in the test on ACHN renal; 9.88 µM in the test on CCRF-CEM leukemia; 8.65 µM in the test with HCC-2998 colon; 3.56 µM in the test on HT29 colon. In addition, the total growth inhibition concentration (TGI) amounted to 3.23 µM in the test on M14 melanoma, 3.09 µM in the test on RXF 393 renal, 13.3 µM with SN12C renal and 4.58 µM with T-47D breast.

Regarding `Cc1ccc(NC2=CC(=O)C(=O)c3ccccc32)cc1`, the GI50 in the test on 786-0 renal was 15 µM; with A549 NSCLC, 1.72 µM; in the test with ACHN renal, 1.92 µM; in the test with CCRF-CEM leukemia, 5.62 µM; with HCC-2998 colon, 2.11 µM; with HT29 colon, 2.14 µM. The GI50 with M14 melanoma was 1.9 µM; with RXF 393 renal, 3.32 µM; in the test on SN12C renal, 1.65 µM; with T-47D breast it was 3.68 µM. Also, the TGI was greater than 100 µM in the test with 786-0 renal; 3.68 µM with A549 NSCLC; 5.33 µM with ACHN renal; greater than 100 µM with CCRF-CEM leukemia; 4.89 µM with HCC-2998 colon; 4.47 µM in the test on HT29 colon. The total growth inhibition concentration (TGI) in the test on M14 melanoma amounted to 3.79 µM; in the test with RXF 393 renal it was 13.7 µM; in the test on SN12C renal, 3.32 µM; in the test on T-47D breast, 18.1 µM.

Consider `CCN(CC)CCCC(C)Nc1ccnc(/C=C/c2ccc(Cl)cc2)c1` (stereo unspecified), for which the TGI in the test with 786-0 renal was 3.45 µM; with A549 NSCLC, 4.79 µM; in the test with ACHN renal, 8.68 µM; in the test with CCRF-CEM leukemia, greater than 19.7 µM; in the test with HCC-2998 colon it was 4.03 µM; in the test on HT29 colon, 6.44 µM. Also, the TGI in the test on M14 melanoma worked out at 2.74 µM; in the test on RXF 393 renal it was 2.92 µM; in the test with SN12C renal it was 10.9 µM; with T-47D breast, 3.59 µM. Besides, the GI50 in the test on RXF 393 renal is 1.44 µM.

For `CCOC(=O)c1cc2c(n1Cc1cc(OC)cc(OC)c1)-c1oncc1CC2`, the GI50 was 0.499 µM with 786-0 renal; 0.27 µM in the test with A549 NSCLC; 2.22 µM with ACHN renal; 0.215 µM in the test on CCRF-CEM leukemia; 0.411 µM with HCC-2998 colon; 0.073 µM in the test on HT29 colon. In addition, the GI50 in the test on M14 melanoma was 0.163 µM; with RXF 393 renal, 0.136 µM; in the test with SN12C renal, 0.994 µM; in the test with T-47D breast it was 31.1 µM. In addition, the TGI in the test with 786-0 renal, in the test with A549 NSCLC, with ACHN renal, in the test with CCRF-CEM leukemia, in the test with HCC-2998 colon and in the test with HT29 colon was greater than 100 µM throughout. Besides, the TGI with M14 melanoma, with RXF 393 renal, with SN12C renal and in the test on T-47D breast was greater than 100 µM throughout.

`c1ccc2c(c1)[nH]c1c3ccccc3sc21`: the TGI in the test on 786-0 renal, with A549 NSCLC, in the test on ACHN renal, in the test on CCRF-CEM leukemia, in the test with HCC-2998 colon and in the test with HT29 colon was greater than 100 µM throughout. Further, the TGI in the test on M14 melanoma, in the test with RXF 393 renal, with SN12C renal and in the test on T-47D breast was greater than 100 µM throughout.

Turning to `CCC(C(=O)[C@@H](C)[C@@H](O)[C@H](C)[C@@H]1O[C@@H]([C@@H](CC)C(=O)ONC(=O)c2ccccc2)CC[C@@H]1C)[C@H]1O[C@]2(C=CC(=O)[C@]3(CC[C@@](C)([C@H]4CC[C@](O)(CC)[C@H](C)O4)O3)O2)[C@H](C)C[C@@H]1C` (stereo partly specified), the GI50 in the test on 786-0 renal was 0.981 µM; in the test with A549 NSCLC it was 0.168 µM; in the test with ACHN renal it was 0.641 µM; with CCRF-CEM leukemia, 0.12 µM; with HCC-2998 colon it was 0.658 µM; with HT29 colon, 0.387 µM. Moreover, the GI50 was 1.32 µM in the test on M14 melanoma, 0.0957 µM in the test on RXF 393 renal, 0.0614 µM with SN12C renal and 0.0463 µM in the test on T-47D breast. For the same compound, the TGI in the test on 786-0 renal stood at 2.26 µM; with A549 NSCLC, 1.63 µM; with ACHN renal, 2.03 µM; with CCRF-CEM leukemia, 1.95 µM; in the test on HCC-2998 colon it was 4.03 µM; in the test with HT29 colon, 2.1 µM. Also, the TGI in the test with M14 melanoma worked out at 7.5 µM; in the test on RXF 393 renal, 1.74 µM; in the test with SN12C renal, 1.49 µM; in the test with T-47D breast it was 2.98 µM.

With `Nc1nc(N)c(-c2ccc(Cl)c(Cl)c2)c(CP(Cl)(Cl)(Cl)Br)n1`, the GI50 in the test on 786-0 renal is 14.6 µM; in the test on A549 NSCLC, 5.37 µM; with ACHN renal it was 6.63 µM; in the test on CCRF-CEM leukemia, 8.13 µM; in the test on HCC-2998 colon, 19.9 µM; in the test with HT29 colon, 6.14 µM. Moreover, the GI50 was 6.62 µM with M14 melanoma, 18.1 µM with RXF 393 renal, 6.47 µM with SN12C renal and 34.1 µM in the test with T-47D breast. Besides, the total growth inhibition concentration (TGI) in the test with 786-0 renal, in the test with A549 NSCLC, in the test on ACHN renal, in the test with CCRF-CEM leukemia, with HCC-2998 colon and in the test on HT29 colon was greater than 100 µM throughout. Moreover, the TGI in the test on M14 melanoma, in the test on RXF 393 renal, in the test with SN12C renal and in the test with T-47D breast was greater than 100 µM throughout.

Regarding `C=CCN1C(=O)[C@]2(SC1=S)[C@H](c1cccc(Cl)c1)CN(C)[C@]21C(=O)NC2C=CC(Cl)=C[C@H]21` (stereo partly specified), the GI50 was 1.51 µM in the test on 786-0 renal; 3.3 µM in the test on A549 NSCLC; 2.99 µM in the test on ACHN renal; 3.25 µM with CCRF-CEM leukemia; 5.05 µM in the test on HCC-2998 colon; 1.67 µM in the test with HT29 colon. The GI50 in the test with M14 melanoma is 2.35 µM; in the test on RXF 393 renal, 2.14 µM; with SN12C renal, 1.81 µM; in the test on T-47D breast it was 2.84 µM. The TGI in the test on 786-0 renal was found to be 3.48 µM; in the test with A549 NSCLC it was 12.9 µM; with ACHN renal it was 13.4 µM; in the test with CCRF-CEM leukemia, 11.6 µM; in the test on HCC-2998 colon it was 19.1 µM; with HT29 colon, 3.85 µM. Moreover, the TGI was 11.9 µM with M14 melanoma, 5.8 µM in the test with RXF 393 renal, 3.77 µM in the test on SN12C renal and 14.7 µM in the test with T-47D breast.

On to `C=C1C(=O)O[C@H]2[C@H]1CC/C(COC(=O)N[C@H](Cc1c[nH]c3ccccc13)C(=O)OC)=C\CC[C@@]1(C)O[C@@H]21`, for which the GI50 in the test on 786-0 renal is 1.28 µM; in the test on A549 NSCLC it was 14.9 µM; in the test on ACHN renal, 1.78 µM; in the test on CCRF-CEM leukemia, 1.78 µM; in the test with HCC-2998 colon, 2.25 µM; in the test on HT29 colon, 2.46 µM. In addition, the GI50 with M14 melanoma was 2.06 µM; in the test on RXF 393 renal it was 1.28 µM; with SN12C renal, 2.08 µM; with T-47D breast, 1.94 µM. In addition, the TGI turned out to be 2.95 µM in the test on 786-0 renal; 32.7 µM in the test on A549 NSCLC; 4.22 µM in the test with ACHN renal; 6.69 µM in the test with CCRF-CEM leukemia; 4.6 µM in the test on HCC-2998 colon; 7.92 µM in the test on HT29 colon. In addition, the TGI with M14 melanoma amounted to 6.08 µM; in the test with RXF 393 renal, 2.66 µM; in the test with SN12C renal, 5.69 µM; in the test with T-47D breast, 5.06 µM.

Take `CCSCCCC(=O)O`: the TGI in the test on 786-0 renal, in the test on A549 NSCLC, with ACHN renal, with CCRF-CEM leukemia, with HCC-2998 colon and in the test on HT29 colon was greater than 100 µM throughout. In addition, the TGI in the test with M14 melanoma, in the test with RXF 393 renal, with SN12C renal and in the test on T-47D breast was greater than 100 µM throughout.
